Test results as given in ChEMBL document CHEMBL1158706, “Hemiterpene glucosides with anti-platelet aggregation activities from Ilex pubescens” (2005).

Species on record: Rattus norvegicus
Experiment: Antiplatelet activity in Sprague-Dawley rat plasma assessed as shear induced platelet aggregation at 10 uM
Format: functional

| Compound | Activity [%] |
| --- | --- |
| C=C(CO)C(CO[C@@H]1O[C@H](CO)[C@@H](O)[C@H](O)[C@H]1O)OC(=O)/C=C/c1ccc(O)c(O)c1 (stereo partly drawn) [PUBESCENOSIDE B] | 27.3 |
| CC(=O)Oc1ccccc1C(=O)O [ASPIRIN] | 44.7 |
| C=C(COC(=O)/C=C/c1ccc(O)c(O)c1)C(O)CO[C@@H]1O[C@H](CO)[C@@H](O)[C@H](O)[C@H]1O (stereo partly drawn) [PUBESCENOSIDE A] | 36.55 |
